Results as given in paper PMC6781469 (Journal of Enzyme Inhibition and Medicinal Chemistry, 2019).
Like-named read-outs stand apart in the source and are kept apart here. Each block holds one molecule with its values, some of them ahead of it.

Experiments:
[1] = test system: KIT; set-up: method as in earlier work; conditions: competitive-binding assays in vitro; read-out: IC50 against KIT; cited from earlier work
[2] = test system: FLT-3; set-up: method as in earlier work; conditions: competitive-binding assays in vitro; read-out: IC50 against FLT-3; cited from earlier work
[3] = molecular target: T1, FLT3(h) (Homo sapiens, UniProt P36888); experiment: Reaction Biology Kinase HotSpot radiometric kinase assay, FLT3; conditions: for times more potent than 5f against FLT3: ratio of FLT3 IC50 versus 5f
T1 sequence (P36888 27-993): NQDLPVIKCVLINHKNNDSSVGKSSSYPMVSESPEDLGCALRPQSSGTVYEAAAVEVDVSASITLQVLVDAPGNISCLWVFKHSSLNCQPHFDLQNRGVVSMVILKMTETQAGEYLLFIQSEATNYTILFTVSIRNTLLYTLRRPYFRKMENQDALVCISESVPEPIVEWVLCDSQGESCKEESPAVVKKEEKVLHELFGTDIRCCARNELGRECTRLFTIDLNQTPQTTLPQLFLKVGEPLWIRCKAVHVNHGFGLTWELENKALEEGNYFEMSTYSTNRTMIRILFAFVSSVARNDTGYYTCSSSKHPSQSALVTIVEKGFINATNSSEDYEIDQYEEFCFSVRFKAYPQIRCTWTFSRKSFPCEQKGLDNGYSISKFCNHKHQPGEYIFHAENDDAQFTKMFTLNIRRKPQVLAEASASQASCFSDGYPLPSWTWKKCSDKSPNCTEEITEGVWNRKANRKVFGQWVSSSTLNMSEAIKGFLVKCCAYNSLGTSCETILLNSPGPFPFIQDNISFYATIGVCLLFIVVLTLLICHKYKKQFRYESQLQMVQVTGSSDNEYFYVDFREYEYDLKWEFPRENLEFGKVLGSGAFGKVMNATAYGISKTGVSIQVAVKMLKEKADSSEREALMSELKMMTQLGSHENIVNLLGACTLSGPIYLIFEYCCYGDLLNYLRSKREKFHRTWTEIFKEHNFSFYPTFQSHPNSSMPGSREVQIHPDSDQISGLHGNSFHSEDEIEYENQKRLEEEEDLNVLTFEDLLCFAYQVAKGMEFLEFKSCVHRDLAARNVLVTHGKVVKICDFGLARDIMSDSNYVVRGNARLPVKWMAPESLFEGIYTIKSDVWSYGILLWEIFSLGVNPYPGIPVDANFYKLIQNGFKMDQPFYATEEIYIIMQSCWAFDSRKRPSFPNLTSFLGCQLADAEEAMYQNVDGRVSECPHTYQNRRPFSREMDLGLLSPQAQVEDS

[4] = molecular target: FMS (Homo sapiens, UniProt P07333); experiment: Reaction Biology Kinase HotSpot kinase assay, FMS
Sequence of FMS (P07333 20-972): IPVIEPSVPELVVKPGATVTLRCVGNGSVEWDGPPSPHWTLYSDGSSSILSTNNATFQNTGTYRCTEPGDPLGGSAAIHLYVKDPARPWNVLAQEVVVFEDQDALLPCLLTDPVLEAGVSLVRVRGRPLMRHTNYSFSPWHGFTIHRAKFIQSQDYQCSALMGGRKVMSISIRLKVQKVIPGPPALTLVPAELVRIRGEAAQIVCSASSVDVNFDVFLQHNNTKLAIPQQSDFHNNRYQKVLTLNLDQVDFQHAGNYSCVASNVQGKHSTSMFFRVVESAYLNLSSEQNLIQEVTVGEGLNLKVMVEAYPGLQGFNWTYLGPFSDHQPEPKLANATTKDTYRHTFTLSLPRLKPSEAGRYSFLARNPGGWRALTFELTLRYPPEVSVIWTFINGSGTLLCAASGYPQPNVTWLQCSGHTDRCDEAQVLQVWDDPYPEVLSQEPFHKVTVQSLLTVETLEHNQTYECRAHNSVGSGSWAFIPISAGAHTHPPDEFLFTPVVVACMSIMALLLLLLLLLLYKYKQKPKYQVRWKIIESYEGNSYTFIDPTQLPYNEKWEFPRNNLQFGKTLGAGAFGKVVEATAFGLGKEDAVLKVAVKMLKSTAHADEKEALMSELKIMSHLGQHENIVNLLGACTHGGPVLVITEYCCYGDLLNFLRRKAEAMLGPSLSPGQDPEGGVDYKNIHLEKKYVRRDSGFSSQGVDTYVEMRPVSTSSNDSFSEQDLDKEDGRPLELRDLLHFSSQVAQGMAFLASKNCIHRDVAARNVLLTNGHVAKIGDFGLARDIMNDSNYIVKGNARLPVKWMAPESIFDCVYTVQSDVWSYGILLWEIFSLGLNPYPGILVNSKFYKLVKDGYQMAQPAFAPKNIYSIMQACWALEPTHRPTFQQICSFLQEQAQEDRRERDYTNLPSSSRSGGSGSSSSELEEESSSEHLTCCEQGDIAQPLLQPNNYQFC

[5] = molecular target: T2, FLT3 (ITD) (Homo sapiens, UniProt P36888, ITD); experiment: kinase panel screen, FLT3 (ITD); conditions: read-out: % Inhibition FLT3 (ITD)
T2 sequence (P36888 564-993): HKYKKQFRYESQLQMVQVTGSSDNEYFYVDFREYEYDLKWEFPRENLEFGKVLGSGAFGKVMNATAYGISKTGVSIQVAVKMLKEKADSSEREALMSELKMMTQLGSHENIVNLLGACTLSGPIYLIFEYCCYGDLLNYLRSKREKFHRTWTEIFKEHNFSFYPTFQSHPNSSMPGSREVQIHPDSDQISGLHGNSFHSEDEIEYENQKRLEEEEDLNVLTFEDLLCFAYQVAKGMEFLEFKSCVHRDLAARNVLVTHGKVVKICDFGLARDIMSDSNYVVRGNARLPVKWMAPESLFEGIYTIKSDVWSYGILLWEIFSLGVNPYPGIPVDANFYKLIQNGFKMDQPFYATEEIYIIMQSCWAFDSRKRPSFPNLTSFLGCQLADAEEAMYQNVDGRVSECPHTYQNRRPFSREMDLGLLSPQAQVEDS

[6] = molecular target: RAF1 (Homo sapiens, UniProt P04049); experiment: kinase panel screen, RAF1; conditions: read-out: % Inhibition RAF1
Sequence of RAF1 (P04049 whole entry): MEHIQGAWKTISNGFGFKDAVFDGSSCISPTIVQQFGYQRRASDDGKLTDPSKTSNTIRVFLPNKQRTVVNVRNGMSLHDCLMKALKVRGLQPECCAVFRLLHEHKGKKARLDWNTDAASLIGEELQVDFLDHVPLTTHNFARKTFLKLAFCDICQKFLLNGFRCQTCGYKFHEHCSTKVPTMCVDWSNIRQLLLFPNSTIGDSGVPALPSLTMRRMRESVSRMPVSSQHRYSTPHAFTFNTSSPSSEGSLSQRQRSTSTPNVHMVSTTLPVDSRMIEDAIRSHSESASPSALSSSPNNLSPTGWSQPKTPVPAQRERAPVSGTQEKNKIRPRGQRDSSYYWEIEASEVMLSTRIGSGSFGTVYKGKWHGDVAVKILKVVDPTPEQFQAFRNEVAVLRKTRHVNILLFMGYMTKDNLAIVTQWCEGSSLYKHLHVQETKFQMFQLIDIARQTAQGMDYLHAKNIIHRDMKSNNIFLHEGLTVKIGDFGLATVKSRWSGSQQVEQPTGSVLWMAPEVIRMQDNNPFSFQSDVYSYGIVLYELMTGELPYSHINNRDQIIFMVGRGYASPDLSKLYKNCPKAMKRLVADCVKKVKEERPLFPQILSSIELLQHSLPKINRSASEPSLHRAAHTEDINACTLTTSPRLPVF

SMILES: CC(C)(C)c1cc(NC(=O)Nc2ccc(-c3ccc(N)nc3)cc2)no1 [compound 1]
- IC50 [1]: 0.001 µM
- IC50 [2]: 0.001 µM

- IC50 [3]: 2.33 µM
- times more potent than 5f against FLT3 [3]: 6–8 times
SMILES: Cc1cn(-c2cc(-c3nc4cc(NC(=O)c5cnoc5C)ccc4[nH]3)cc(C(F)(F)F)c2)cn1 [5d]

SMILES: Cc1oncc1C(=O)Nc1ccc2nc(-c3cc(N4CCN(C)CC4)cc(C(F)(F)F)c3)[nH]c2c1 [5a, 5-methyl-N-(2-(3-(4-methylpiperazin-1-yl)-5-(trifluoromethyl)phenyl)-1H-benzo[d]imidazole-5-yl) isoxazole-4-carboxamide]
- inhibition at 10 µM ([4]; read-out: % Inhibition FMS): 0%
- IC50 [3]: 0.495 µM
- inhibition at 10 µM ([3]; read-out: % Inhibition FLT3): 90%
- inhibition at 10 µM [5]: 88.5%
- inhibition at 10 µM [6]: 8.47%

- IC50 [3]: 6.2 µM
SMILES: Cc1cn(-c2cc(-c3nc4c(NC(=O)c5cnoc5C)cccc4[nH]3)cc(C(F)(F)F)c2)cn1 [6c]

- IC50 [4]: 9.98 µM
- IC50 [3]: 1.62 µM
- times more potent than 5f against FLT3 [3]: 6–8 times
SMILES: Cc1oncc1C(=O)Nc1ccc2[nH]c(-c3cc(-n4cncc4C)cc(C(F)(F)F)c3)nc2c1 [5e]

- IC50 ([3]; read-out: IC50 (µM) FLT3, enzymatic activity, Table 1, NA not defined): 7.94 µM
SMILES: Cc1oncc1C(=O)Nc1ccc2[nH]c(-c3cc(N4CCOCC4)cc(C(F)(F)F)c3)nc2c1 [5b]

- IC50 [3]: 2.25 µM
SMILES: Cc1oncc1C(=O)Nc1cccc2[nH]c(-c3cc(N4CCN(C)CC4)cc(C(F)(F)F)c3)nc12 [6a]

- IC50 [3]: 13.4 µM
SMILES: Cc1oncc1C(=O)Nc1ccc2[nH]c(-c3cc(-n4ccnc4C)cc(C(F)(F)F)c3)nc2c1 [5f]

- IC50 [3]: ~10 µM
SMILES: Cc1oncc1C(=O)Nc1ccc2[nH]c(-c3ccc(N4CCOCC4)c(C(F)(F)F)c3)nc2c1 [5c]

- IC50 [3]: 13.9 µM
SMILES: Cc1oncc1C(=O)Nc1cccc2[nH]c(-c3ccc(N4CCOCC4)c(C(F)(F)F)c3)nc12 [6b]
